Patent US20140094424A1, “MICROBICIDAL COMPOSITIONS AND METHODS OF PRODUCTION USE THEREOF” (priority 2011, published 2014)

What was measured:
Gram positive rods (S) = assay: MBC (minimum bactericidal concentration) test in Wash NEXT reagent; assay type: cell-based
[1] = tested on: Pseudomonas fluorescens (D); assay: as above; assay type: cell-based

Measured: MBC test growth score

Cc1cc(NS(=O)(=O)c2ccc(N)cc2)no1 [Sulfamethoxazole, sulfamethoxazole]
+: Gram positive rods (S); 10% preservative, 8 hour | Gram positive rods (S); 10% preservative, 24 hour | Gram positive rods (S); 10% preservative, 48 hour | Gram positive rods (S); 10% preservative, 72 hour | Gram positive rods (S); 10% preservative, 7 day | Gram positive rods (S); 10% preservative, 14 day | Gram positive rods (S); 20% preservative, 8 hour | Gram positive rods (S); 20% preservative, 24 hour | Gram positive rods (S); 20% preservative, 48 hour | Gram positive rods (S); 20% preservative, 72 hour | Gram positive rods (S); 20% preservative, 7 day | Gram positive rods (S); 20% preservative, 14 day | Gram positive rods (S); 30% preservative, 8 hour | Gram positive rods (S); 30% preservative, 24 hour | Gram positive rods (S); 30% preservative, 48 hour | Gram positive rods (S); 30% preservative, 72 hour | Gram positive rods (S); 30% preservative, 7 day | Gram positive rods (S); 30% preservative, 14 day | Gram positive rods (S); 40% preservative, 8 hour | Gram positive rods (S); 40% preservative, 24 hour | Gram positive rods (S); 40% preservative, 48 hour | Gram positive rods (S); 40% preservative, 72 hour | Gram positive rods (S); 40% preservative, 7 day | Gram positive rods (S); 40% preservative, 14 day | Gram positive rods (S); 50% preservative, 8 hour | Gram positive rods (S); 50% preservative, 24 hour | Gram positive rods (S); 50% preservative, 48 hour | Gram positive rods (S); 50% preservative, 72 hour | Gram positive rods (S); 50% preservative, 7 day | Gram positive rods (S); 50% preservative, 14 day | Gram positive rods (S); 60% preservative, 8 hour | Gram positive rods (S); 60% preservative, 24 hour | Gram positive rods (S); 60% preservative, 48 hour | Gram positive rods (S); 60% preservative, 72 hour | Gram positive rods (S); 60% preservative, 7 day | Gram positive rods (S); 60% preservative, 14 day | Gram positive rods (S); 70% preservative, 8 hour | Gram positive rods (S); 70% preservative, 24 hour | Gram positive rods (S); 70% preservative, 48 hour | Gram positive rods (S); 70% preservative, 72 hour | Gram positive rods (S); 70% preservative, 7 day | Gram positive rods (S); 70% preservative, 14 day | Gram positive rods (S); 80% preservative, 8 hour | Gram positive rods (S); 80% preservative, 24 hour | Gram positive rods (S); 80% preservative, 48 hour | Gram positive rods (S); 80% preservative, 72 hour | Gram positive rods (S); 80% preservative, 7 day | Gram positive rods (S); 80% preservative, 14 day | Gram positive rods (S); 90% preservative, 8 hour | Gram positive rods (S); 90% preservative, 24 hour | Gram positive rods (S); 90% preservative, 48 hour | Gram positive rods (S); 90% preservative, 72 hour | Gram positive rods (S); 90% preservative, 7 day | Gram positive rods (S); 90% preservative, 14 day | Gram positive rods (S); 100% preservative, 8 hour | Gram positive rods (S); 100% preservative, 24 hour | Gram positive rods (S); 100% preservative, 48 hour | Gram positive rods (S); 100% preservative, 72 hour | Gram positive rods (S); 100% preservative, 7 day | Gram positive rods (S); 100% preservative, 14 day | [1]; 10% preservative, 8 hour | [1]; 10% preservative, 24 hour | [1]; 20% preservative, 8 hour | [1]; 20% preservative, 24 hour | [1]; 30% preservative, 8 hour | [1]; 30% preservative, 24 hour | [1]; 30% preservative, 48 hour | [1]; 40% preservative, 8 hour | [1]; 40% preservative, 24 hour | [1]; 40% preservative, 48 hour | [1]; 50% preservative, 8 hour | [1]; 50% preservative, 24 hour | [1]; 50% preservative, 48 hour | [1]; 60% preservative, 8 hour | [1]; 60% preservative, 24 hour | [1]; 60% preservative, 48 hour | [1]; 70% preservative, 8 hour | [1]; 70% preservative, 24 hour | [1]; 70% preservative, 48 hour | [1]; 80% preservative, 8 hour | [1]; 80% preservative, 24 hour | [1]; 80% preservative, 48 hour | [1]; 90% preservative, 8 hour | [1]; 90% preservative, 24 hour | [1]; 90% preservative, 48 hour | [1]; 100% preservative, 8 hour | [1]; 100% preservative, 24 hour | [1]; 100% preservative, 48 hour
+/−: [1]; 10% preservative, 48 hour | [1]; 10% preservative, 72 hour | [1]; 20% preservative, 48 hour | [1]; 20% preservative, 72 hour | [1]; 30% preservative, 72 hour | [1]; 40% preservative, 72 hour | [1]; 50% preservative, 72 hour | [1]; 60% preservative, 72 hour | [1]; 70% preservative, 72 hour | [1]; 80% preservative, 72 hour | [1]; 90% preservative, 72 hour | [1]; 100% preservative, 72 hour
